Numbering of substitutions follows the chain as printed. Numbers in names are those of the source. Read-outs that look alike come from different tables or passages of the source.
How the values were obtained:
RelTt^NTD = RelTt^NTD (Thermus thermophilus, UniProt Q5SHL3); assay: Isothermal Titration Calorimetry (ITC), titration into RelTt^NTD; assay type: binding, T. thermophilus
Protocol: (§1) To directly address the sequential binding hypothesis, we monitored the binding of these nucleotides using Isothermal Titration Calorimetry (ITC). […] However, once the RelTt^NTD-GDP complex is formed, APCPP binds with an affinity of around 50 μM (FIG. 9h and Table 6). The incorporation of both GDP and APCPP is entropically driven (FIG. 11b and Table 6). In the case of the binding of GDP to the SYN-domain, the release of ordered water molecules from the GDP binding cleft is accompanied by the movement of α6-α7 that partially occludes the HD active center and an increase in the enzyme flexibility as observed in the crystal structure. All these structural changes are consistent with entropically driven binding events. […] In addition, it creates an ‘entropy reservoir’ that drives the binding of APCPP with the release of water molecules from the now exposed binding cleft. This supports the notion that GDP must ‘open’ the enzyme to reveal the ATP binding site, as predicted from the analysis of the crystallographic data.

RelTt^NTD-APCPP complex = RelTt^NTD-APCPP complex (Thermus thermophilus, UniProt Q5SHL3); assay: ITC, titration into RelTt^NTD-APCPP complex; assay type: binding, T. thermophilus
Protocol: as §1

RelTt^NTD-GDP complex = RelTt^NTD-GDP complex (Thermus thermophilus, UniProt Q5SHL3); assay: ITC, titration into RelTt^NTD-GDP complex; assay type: binding, T. thermophilus
Protocol: as §1

full-length RelTt = assay: ppGpp synthesis (synthase) activity of full-length RelTt and variants, 3H-labeled GDP; assay type: biochemical, T. thermophilus; design: Synthase activity, Substrate: GDP + ATP, RelTt + IC / Synthase activity, Substrate: GDP + ATP, RelTt + IC + tRNA^Val: unit not given here; details: 40° C.; for Synthase activity, Substrate: GDP + ATP, RelTt + IC + tRNA^Val: with 70S IC and deacylated tRNA^Val; for Synthase activity, Substrate: GDP + ATP, RelTt + IC: with T. thermophilus 70S IC
Protocol: FIG. 1. Biochemical characterization of full-length RelTt. (a) Hydrolysis activity of 100 nM full-length RelTt was assayed in the presence of 0.5 mM 3H-labeled ppGpp substrate either at 4° C. or 40° C. Synthetic activity of 30 nM full-length RelTt was assayed at 40° C. in the presence of either 1 mM ATP (b) or 1 mM APPNP (c), as well 0.3 mM of 3H-labeled GDP and 0.1 mM ppGpp. As indicated on the figure, the reactions were supplemented with 120 nM T. thermophilus 70S IC(MV) added either alone or in combination with 2 μM deacylated E. coli tRNAVal. All experiments were performed in HEPES:Polymix buffer, pH 7.5, 5 mM Mg^2+, either in the presence (a) or absence (b and c) of 0.5 mM Mn^2+. Error bars represent Standard deviations of the turnover estimates by linear regression.

Chain of RelTt^NTD-GDP complex (Q5SHL3 entry or part of it, one chain of several): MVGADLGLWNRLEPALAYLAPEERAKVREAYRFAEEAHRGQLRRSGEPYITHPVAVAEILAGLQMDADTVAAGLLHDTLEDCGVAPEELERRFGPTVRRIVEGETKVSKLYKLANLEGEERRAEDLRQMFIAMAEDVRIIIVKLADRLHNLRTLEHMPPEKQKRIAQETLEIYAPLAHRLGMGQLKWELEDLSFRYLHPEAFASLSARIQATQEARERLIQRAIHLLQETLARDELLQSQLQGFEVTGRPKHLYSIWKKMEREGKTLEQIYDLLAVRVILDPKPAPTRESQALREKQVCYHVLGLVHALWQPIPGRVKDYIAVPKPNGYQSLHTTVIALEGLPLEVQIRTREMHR
Chain of RelTt^NTD (Q5SHL3 entry or part of it): as the sequence (Q5SHL3 entry or part of it, one chain of several) above
Chain of RelTt^NTD-APCPP complex (Q5SHL3 entry or part of it, one chain of several): as above

Nc1nc2c(ncn2[C@@H]2O[C@H](COP(=O)(O)OP(=O)(O)O)[C@@H](O)[C@H]2O)c(=O)[nH]1 [GDP]
ΔG (RelTt^NTD): -6.12 ± 0.01 kcal/mol | ΔH (RelTt^NTD): 1.3 ± 1 kcal/mol | −TΔS (RelTt^NTD): -7.6 ± 1 kcal/mol | Kd (RelTt^NTD; read-out: Kd): 23 µM | Kd (RelTt^NTD-APCPP complex): 24.7 ± 0.9 µM | ΔG (RelTt^NTD-APCPP complex): -6.1 ± 0.1 kcal/mol | ΔH (RelTt^NTD-APCPP complex): 0.4 ± 1 kcal/mol | −TΔS (RelTt^NTD-APCPP complex): -6.5 ± 1 kcal/mol

Nc1ncnc2c1ncn2[C@@H]1O[C@H](COP(=O)(O)CP(=O)(O)OP(=O)(O)O)[C@@H](O)[C@H]1O [APCPP]
Kd (RelTt^NTD): does not bind | Kd (RelTt^NTD-GDP complex): 50.4 µM | ΔG (RelTt^NTD-GDP complex): -5.67 ± 0.07 kcal/mol | ΔH (RelTt^NTD-GDP complex): 1.8 ± 1 kcal/mol | −TΔS (RelTt^NTD-GDP complex): -7.5 ± 1 kcal/mol

B1: R249A D272A: RelTt with substitutions R249A and D272A (protein)
chain: MVGADLGLWNRLEPALAYLAPEERAKVREAYRFAEEAHRGQLRRSGEPYITHPVAVAEILAGLQMDADTVAAGLLHDTVEDCGVAPEELERRFGPTVRRIVEGETKVSKLYKLANLEGEERRAEDLRQMFIAMAEDVRIIIVKLADRLHNLRTLEHMPPEKQKRIAQETLEIYAPLAHRLGMGQLKWELEDLSFRYLHPEAFASLSARIQATQEARERLIQKAIHLLQETLARDELLQSQLQGFEVTGAPKHLYSIWKKMEREGKTLEQIYALLAVRVILDPKPAPTRESQALREKQVCYHVLGLVHALWQPIPGRVKDYIAVPKPNGYQSLHTTVIALEGLPLEVQIRTREMHRVAEYGIAAHWLYKEGLTDPEEVKRRVSWLKSIQEWQKEFSSSREFVEAVTKDLLGGRVFVFTPKGRIINLPKGATPVDFAYHIHTEVGHHMVGAKVNGRIVPLSYELQNGEIVEILTSKNAHPSKGWLEFAKTRSAKSKIRQYFRAQERQETLERGQHLLERYLKRRGLPKPTDSQLEEAAKRLSLPPSPEELYLALALNRLTPRQVAEKLYPKALLKPEKPKPQVRNEWGIRLEQDLQAPIRLASCCEPMKGDPILGFVTRGRGVTVHRADCPNLRRLLQGPEADRVIGAYWEGVGGKVVVLEVLAQDRAGLLRDVMQVVAEAGKSALGSETRVLGPLARIRLRLAVQDGEEERILQAVQKVSGVKEARWA
Synthase activity, Substrate: GDP + ATP, RelTt + IC + tRNA^Val (full-length RelTt): 12.0 ± 2.0 | Synthase activity, Substrate: GDP + ATP, RelTt + IC (full-length RelTt): 8.5 ± 1.0

B2: R249A D272A Y329A: RelTt with substitutions R249A, D272A and Y329A (protein)
chain: B1 chain with Y329A
Synthase activity, Substrate: GDP + ATP, RelTt + IC + tRNA^Val (full-length RelTt): 8.8 ± 0.69 | Synthase activity, Substrate: GDP + ATP, RelTt + IC (full-length RelTt): 10.9 ± 3.6

B3: R249A R277A: RelTt with substitutions R249A and R277A (protein)
chain: B1 chain with A272D, R277A
Synthase activity, Substrate: GDP + ATP, RelTt (full-length RelTt; enzyme alone, triplicate): 2.6 ± 0.6 | Synthase activity, Substrate: GDP + ATP, RelTt + IC + tRNA^Val (full-length RelTt): 10.5 ± 1.8 | Synthase activity, Substrate: GDP + ATP, RelTt + IC (full-length RelTt): 8.6 ± 2

B4: R249A R277A Y329A: RelTt with substitutions R249A, R277A and Y329A (protein)
chain: B1 chain with A272D, R277A, Y329A
Synthase activity, Substrate: GDP + ATP, RelTt + IC + tRNA^Val (full-length RelTt): 5.4 ± 2.1 | Synthase activity, Substrate: GDP + ATP, RelTt + IC (full-length RelTt): 4.5 ± 2.3
